The values that follow come from patent US5100907A, “Hydantoin esters” (Lonza, Inc., priority 1990, dated 1992).

Read-outs that look alike come from different tables or passages of the source.

Holding throughout (format): physicochemical
Data set [1] in a line: Dispersion stability tests. As for the experimental part: The dispersion stability tests were performed on the esters (I) to determine the extent each was able to disperse itself in an aqueous medium.
The dispersions were prepared by homogenizing a mixture of the test ester and water, after which repeated examination of the sample was effected for a period of 55 days. This test method is fully indicative of the dispersibility of these esters (I).
The dispersion tests were performed with the esters at 0.5% and 5.0% active levels in water, prepared by combining the test ester with distilled water, and homogenizing the mixture for one to three minutes, via a Kika-Werk Ultra-Turrax S D-45 homogenizer. The dispersions were poured into an eight ounce flint jar, capped, and periodically examined over a 55 day period.

A short description of another data set: Emulsion stability tests. To be noted: for Classification of Emulsion: 2% ester, 7% myristyl propionate, 91% water. As for the experimental part:
Emulsion stability tests were performed on the esters (I), and for comparison on the precursor esters (Ia), to determine the extent to which each stabilized a standardized solution of water and an oil, using a common procedure consisting of homogenizing a mixture containing the test ester (2%), myristyl propionate (7%), and water (91%). While two emulsifiers are normally used to prepare a cosmetic formulation, e.g. one with a high HLB and the other with a low HLB, the test method herein using only one emulsifier, i.e. the test ester, is fully indicative of the emulsifying attributes of these esters.
The tests were performed with emulsions (500 g), prepared by combining the test ester (10.0 g), myristyl propionate (35 g), and distilled water (455 g) in a container and homogenizing the contents for one minute, via a Kika-Werk Ultra-Turrax S D-45 homogenizer. The emulsions were poured into a one pound flint jar, capped, and periodically examined over a 55 day period.

Data set [2] can be described thus: Physical properties of methylolated MHEDMH esters (I): viscosity. The conditions noted are these: at 25° C.
Data set [3] can be described thus: Total available formaldehyde (TF) and free formaldehyde (FF) levels of esters (I). The conditions noted are these: for Calculated TF / Determined FF / Ratio FF/TF: 1% active concentration in water; for FF (free formaldehyde) / TF (total available formaldehyde): neat ester, Table 3; for FF/TF ratio: water. The source says: Thus, whether the formaldehyde content is chemically bonded to the hydantoin moiety or is free formaldehyde (FF) in solution, e.g., in water as formaldehyde or methylene glycol [CH2 (OH)2 ], it remains available for biocidal action. Due to this direct relation, the weight percent TF in a given preparation of the ester (I), e.g. a cosmetic formulation, can be predicted accurately, regardless of the level of dilution.

Data set [4] can be described thus: HLB determination (weighted average method). The source says:
Hydrophilic-Lipophilic Balance or HLB is a means of associating the hydrophilic and lipophilic characteristics between two surfactants. A "weighted average" method was used to determine the HLB of the esters (I), and by comparison of the precursor ester (Ia), in which two emulsifiers of known HLB values along with the test ester were incorporated in a mixture of mineral oil and water. Evaluation and HLB determination of each of a series of prepared emulsion samples were effected by visual inspection.
The HLB of the mixture "m" is calculated from the sum of the HLB contributions of each surfactant, "a", "b", "c", per Equation 2 which describes a system of oil, water, and three surfactants.
Given that [HLB]m, [HLB]a, and [HLB]b, are known, and the ideal amount of "a", "b", and "c" to prepare a perfect emulsion has been determined, then by rearrangement of Eq. 2, the HLB of "c" can be calculated by Equation 3.
To obtain the HLB of the test ester as surfactant "c", a series of formulations was prepared in which the known surfactant sorbitan monostearate (SMS) as "a" and the known surfactant POE 20 sorbitan monostearate (POE 20 SMS) as "b" were varied in amount (wt. %) relative to each other at a constant amount (1 wt. %) of "c", until an optimum emulsion was obtained. Different combinations of "a" and "b" were used to vary the HLB of "c", for emulsifying a 40:56 (wt. %) mixture of paraffin oil and distilled water (totaling 96 wt. %).
To prepare the emulsions, surfactants "a", "b", and "c", and the paraffin oil were combined in a 150 ml beaker and heated slowly with agitation to 70°-80° C. The value of "X" in each formulation was predetermined by rearranging Eq. 3 to solve for X, and then inserting into the equation various [HLB]c values for the test ester (i.e., 2, 3, 4, 5, 6 . . . ). The [HLB]c values chosen reflected a range that would likely contain the actual HLB of the test ester. Hot distilled water (70°-80° C.) was then slowly added with agitation. The total weight of all these reagents was 100 grams. The resulting emulsion was allowed to cool, with continued agitation, until the temperature dropped below 30° C.
A series of emulsions for each test was prepared, one at a time, and then examined as a set. Each sample within the series was evaluated and graded according to the quality of the emulsion by visual examination of droplet size.

The nature of data set [5]: Surface tension tests (cmc, Gibbs' Free Energy of Micellation). To be noted: for ΔG°cmc (Gibbs' Free Energy of Micellation): calculated from cmc by Eq. 1, T=298° K.; for cmc (critical micelle concentration): ester/water solution. As for the experimental part: Surface tension tests were conducted as to the relationship between the fatty acid aliphatic chain length, i.e. number of carbon atoms, in the esters (I), and their performance as surfactants. The length of the hydrophobic chain of a molecule is considered the major contributing factor to the critical micelle concentration (cmc) value of a surfactant. This value is obtained from surface tension measurement data. The lower the cmc, the more readily the material will form micelles.
The Gibbs' Free Energy of Micellation (ΔG°cmc) and the ΔG°cmc per --CH2 -- can be determined if the cmc is known.
The ΔG°cmc is a calculated value obtained by Equation 1.
ΔG°cmc =2.303RT(log cmc-log[water]) (Eq. 1)
The ΔG°cmc per --CH2 -- value is obtained from the slope of the straight line curve formed from a plot of ΔG°cmc versus the number of carbon atoms in the lipophilic chain.
The cmc values were based on surface tension tests conducted with a tensiometer (Cenco-DuNoug Precision Model #70535, direct reading model) to determine the upward surface tension at the liquid-air surface of the test ester/water solution. The methods used to calibrate the tensiometer, calculate the "correction factor" (used to correct for the difference between the apparent and true surface tension), and collect data, were conducted as described in the manual for the instrument. Sodium lauryl sulfate (SLS) and distilled water were used as reference samples.
On completing data collection, plots of the surface tension (dynes) versus -log of the concentration (mols/liter) were prepared, using only the "corrected" surface tension value, obtained by applying the noted "correction factor" in each case. The […] was found by multiplying the "apparent" surface tension by a calculated correction factor.
The critical micelle concentration (cmc) for each sample was determined by locating the point in the curve where the surface tension first begins to level off, per a known procedure.

A short description of data set [6]: Solubilities of esters in typical solvents / appearance of samples in water. The conditions noted are these: for Solubility in isopropyl alcohol / Solubility in mineral oil / solubility: 25° C.; for solubility: water.
[7] abbreviates: grams, legend per 100 g Solvent.

Regarding “2-(3-hydroxymethyl-5,5-dimethyl-1,3-diazacyclopentane-2,4-dion-1-yl)-ethylester of isostearic acid [Isostearic Methylolated Ester]”, the “dispersion quality, decreasing order of rank” value in data set [1] is on record as “isostearate>oleate>cocoate>laurate>C8/10ester>>stearate>acetate”. In addition, the “emulsion quality, decreasing order of rank” value in the data set “Emulsion stability tests” is reported as “cocoate, laurate>oleate,isostearate>stearate>C8/10 ester>acetate”. This molecule registered a Viscosity in data set [2] of 957 cts. Besides, in data set [3], the “Calculated TF” value was 0.062 Wt. %, the “Determined FF” value is 0.0082 Wt. %, the “FF (free formaldehyde)” value was determined as 0.2 Wt. % and the “TF (total available formaldehyde)” value stood at 6.2 Wt. %. Moreover, in data set [4], the “Average HLB” value is on record as 15.0 and the “HLB Range” value is given as 14-16. In addition, in data set [5], the surface active properties result is reported as “particularly favorable surface active properties”, the “ΔG°cmc (Gibbs' Free Energy of Micellation)” value was -7.13 kcal/mol and the “cmc (critical micelle concentration)” value was 3.0 × 10^-4 mol dm^-3.

Take `CC(=O)OCCN1C(=O)N(CO)C(=O)C1(C)C` [Acetic Methylolated Ester, 2-(3-hydroxymethyl-5,5-dimethyl-1,3-diazacyclopentane-2,4-dion-1-yl)-ethylester of acetic acid]: in data set [1], the “dispersion quality, decreasing order of rank” value was “isostearate>oleate>cocoate>laurate>C8/10ester>>stearate>acetate”. For the same molecule, the “Classification of Dispersion” value in data set [1] (0.5% active in water, 2 Hours) is on record as “Dissolved”; in data set [1] (0.5% active in water, 3 Days) it was “Dissolved”; in data set [1] (0.5% active in water, 13 Days), “Dissolved”; in data set [1] (0.5% active in water, 55 Days) it was “Dissolved”; in data set [1] (5.0% active in water, 2 Hours), “Dissolved”; in data set [1] (5.0% active in water, 3 Days) it was “Dissolved”. Also, the “Classification of Dispersion” value in data set [1] (5.0% active in water, 13 Days) is recorded as “Dissolved”; in data set [1] (5.0% active in water, 55 Days), “Dissolved”. In addition, the “ability to stabilize emulsions” value in “Emulsion stability tests” is recorded as “generally unable to stabilize an emulsion for more than two hours”. Also, the “emulsion quality, decreasing order of rank” value in “Emulsion stability tests” is on record as “cocoate, laurate>oleate,isostearate>stearate>C8/10 ester>acetate”. Besides, the “Classification of Emulsion” value in the data set “Emulsion stability tests” (2 Hours after preparation), in the data set “Emulsion stability tests” (7 Days after preparation), in the data set “Emulsion stability tests” (22 Days after preparation) and in the data set “Emulsion stability tests” (55 Days after preparation) was 2-Phase each time. Also, the “Solubility in isopropyl alcohol” value in data set [6] is on record as “S (>10 g/100 g Solvent)”. Also, in data set [6] (setting [7]), the “Solubility in mineral oil” value is on record as 3 g. Moreover, the solubility (in general, how much of the substance goes into solution per volume) in data set [6] is more than 100 mg/mL. For the same molecule, the Viscosity in data set [2] is 4,384 cts. The “Calculated TF” value in data set [3] is recorded as 0.123 Wt. %. For the same molecule, in data set [3], the “Determined FF” value amounted to 0.0199 Wt. %. Besides, the “Ratio FF/TF” value in data set [3] was 0.162. In data set [3], the “FF (free formaldehyde)” value was 0.6 Wt. %. Further, the “TF (total available formaldehyde)” value in data set [3] is listed as 12.3 Wt. %. Also, the values for the FF/TF ratio in data set [3] (concentration 0.1%), in data set [3] (concentration 1%) and in data set [3] (concentration levels >5%) were 0.25, 0.20 and “about 0.15%”, respectively. Also, the figures for the “Average HLB” value in data set [4] and in data set [4] (listed as acetate (I)) were 19.0 and 19, respectively. Besides, the “HLB Range” value in data set [4] is 19-20. In data set [5], the “ΔG°cmc (Gibbs' Free Energy of Micellation)” value was -3.896 kcal/mol. Further, in data set [5], the “cmc (critical micelle concentration)” value is 7.24 × 10^-3 mol dm^-3.

`CCCCCCCCCCCCCCCCCC(=O)OCCN1C(=O)N(CO)C(=O)C1(C)C` [Stearic Methylolated Ester, 2-(3-hydroxymethyl-5,5-dimethyl-1,3-diazacyclopentane-2,4-dion-1-yl)-ethylester of stearic acid]: in data set [1], the “dispersion quality, decreasing order of rank” value is recorded as “isostearate>oleate>cocoate>laurate>C8/10ester>>stearate>acetate”. In data set [1] (0.5% active in water, 3 Days), the “Classification of Dispersion” value is reported as 2-Phase. In addition, the “Classification of Dispersion” value in data set [1] (0.5% active in water, 13 Days) is given as 2-Phase. Besides, the “Classification of Dispersion” value in data set [1] (0.5% active in water, 55 Days) is 2-Phase. In addition, in data set [1] (5.0% active in water, 3 Days), the “Classification of Dispersion” value is 2-Phase. In addition, the “Classification of Dispersion” value in data set [1] (5.0% active in water, 13 Days) was 2-Phase. For the same molecule, the “Classification of Dispersion” value in data set [1] (5.0% active in water, 55 Days) is 2-Phase. Further, the “emulsion quality, decreasing order of rank” value in “Emulsion stability tests” was “cocoate, laurate>oleate,isostearate>stearate>C8/10 ester>acetate”. Also, the “Classification of Emulsion” value in “Emulsion stability tests” (2 Hours after preparation) was “Good/OK”. Besides, in data set [6], the “water solubility relative to the other esters” value is listed as “far less soluble in water than the other such esters”, the “Solubility in isopropyl alcohol” value was “S (>10 g/100 g Solvent)” and the “Solubility in mineral oil” value is given as “S (>10 g/100 g Solvent)”. In addition, the solubility in data set [6] (setting [7]) is less than 10 mg/mL. Further, in data set [3], the “Calculated TF” value is on record as 0.064 Wt. %, the “Determined FF” value worked out at 0.0066 Wt. %, the “Ratio FF/TF” value amounted to 0.103 and the “FF (free formaldehyde)” value is 0.2 Wt. %. For the same molecule, the “TF (total available formaldehyde)” value in data set [3] is listed as 6.4 Wt. %. In data set [4], the “Average HLB” value is reported as 7.0 and the “HLB Range” value was 6-8. Further, the “Average HLB” value in data set [4] (listed as stearate (I)) is recorded as 7. Also, in data set [5], the “ΔG°cmc (Gibbs' Free Energy of Micellation)” value is -5.277 kcal/mol and the “cmc (critical micelle concentration)” value is 7.0 × 10^-3 mol dm^-3.
